Experimental data reported in paper PMC10804667, “Molecular mechanism of Fe^3+ binding inhibition to Vibrio metschnikovii ferric ion‐binding protein, FbpA, by rosmarinic acid and its hydrolysate, danshensu” (Protein Science : A Publication of the Protein Society, 2024).
Converted amounts (≈) assume the structure as drawn. “And” between values parts separate entries of the source, which are not always exact repeats. Equal entries are not always repeated.

Assays:
[1] = Fe3+ reduction capacity (o-phenanthroline assay); details: 40 μM Fe^3+; concentration giving 20 μM Fe^2+; read-out: EC50 for reduction from Fe^3+ to Fe^2+
Description: Solutions containing 40 μM FeCl3 and varying concentrations of RA, DSS, and CA (0, 0.625, 1.25, 5, 10, 20, and 40 μM) were prepared and analyzed. Each sample was combined with 0.25% o‐phenanthroline (2 mL) followed by a pH adjustment to 3.5 with HCl, and Milli‐Q water was added to reach a final volume of 25 mL. After incubation at room temperature for 1 h, the absorbance at 510 nm was measured using a microplate spectrophotometer (Benchmark Plus, Bio‐Rad), and the concentration of Fe^2+ was determined using FeSO4·7H2O as a standard. The Fe^2+ concentrations were plotted and fitted as a function of Log2(inhibitor concentration) using GraphPad Prism (version: 9.5.0) software with a nonlinear regression model. The half maximal effective concentration (EC50) was calculated by reading the inhibitor concentrations at an Fe^2+ concentration of 20 μM.

VmFbpA [2] = test: 6×His-based VmFbpA inhibition assay (pull-down assay) of Fe3+ binding; type: biochemical, Vibrio metschnikovii; details: 60 min at 4°C, 20 mM Tris–HCl pH 8.0, 50 mM NaHCO3, 100 mM NaCl, read-out: IC50 to VmFbpA (inhibition of Fe^3+ binding)
Description: (§1) Fe^3+‐bound His6‐VmFbpA (30 μM, 200 μL) was loaded onto a 40 μL Ni‐NTA slurry resin (bed volume: 20 μL) in a Micro Bio‐Spin column (Bio‐Rad) and incubated at 4°C for 30 min. The column was extensively washed with wash buffer (20 mM Tris–HCl, pH 8.0, 50 mM NaHCO3, 100 mM NaCl). Various concentrations of RA, DSS, or CA (200 μL) were added to the column and incubated for 60 min at 4°C in a solvent consisting of 20 mM Tris–HCl, pH 8.0, 50 mM NaHCO3, and 100 mM NaCl. The column was washed extensively with wash buffer and eluted with 100 μL of elution buffer (wash buffer containing 250 mM imidazole). The Fe concentration of the eluent was determined using ICP‐MS as reported previously (Lu et al. [2019]) and adjusted to the protein concentration, which was measured using a Pierce 660 nm Protein Assay. Samples without FeCl3 were used as a negative control group and samples lacking inhibitors were used as a positive control group. All buffers contained 0.3% DMSO to solubilize the inhibitors, unless otherwise indicated.
(§2) The protein inhibitory rates were calculated using the following formula: Inhibitory rates%=1−Conc.Fesample−Conc.Feapo/Conc.Feholo−Conc.Feapo×100%
(§3) The inhibitory rate was plotted and fitted as a function of inhibitor concentration by a logarithmic function model using GraphPad Prism (version: 9.5.0) software. The 50% inhibitory concentration (IC50) was calculated by reading the concentration at the inhibitory rate of 50%.

VmFbpA [3] = test: Isothermal titration calorimetry (ITC) of ligand binding to VmFbpA; design: species or system Vibrio metschnikovii; details: 298 K, 20 mM HEPES pH 8.0, 50 mM NaCl, apo VmFbpA, read-out: K D for VmFbpA
Description: The 6× His‐free apo VmFbpA samples were dialyzed overnight at 4°C against dialysis buffer (20 mM pH 8.0 HEPES, 50 mM NaCl). ITC was performed using MicroCal iTC200 (Malvern). RA, DSS, or CA was dissolved in dialysis buffer at a final concentration of 400 μM and injected 20 times by a motor‐driven syringe into 200 μL of 20 μM Apo VmFbpA. The first injection volume was 0.1 μL and subsequent injection volumes were 2.0 μL. The reference cell of the microcalorimeter was filled with 200 μL of the corresponding dialysis buffer. The titrations were performed at room temperature. The data were analyzed using MicroCal LLC iTC 200 for Windows (Malvern). All experiments were repeated at least twice to ensure reproducibility.

V. metschnikovii = test: Bacteriostatic assay; type: cell-based; details: Vibrio metschnikovii, 20 h, NB medium, 37°C, 20 h culture; concentration at inhibitory rate of 95%
Description: A pre‐culture of V. metschnikovii was prepared in 5 mL of NB medium (3.0 g/L meat extract, 5.0 g/L meat peptone, 10.0 g/L NaCl, pH 7.0) at 37°C. When the OD600 reached ~0.6, 2 μL of the pre‐culture was inoculated into 200 μL of NB medium for the bacteriostatic assay. The culture was performed at 37°C in a 96‐well plate. Bacteriostatic agents (RA, DSS, and CA) were tested at a range of concentrations (5000 μM to 39 μM). The cultures without bacteriostatic agents were used as a natural growth control and the cultures without bacteria were used as the respective sterile controls (Blanks). The OD600 was measured using a microplate spectrophotometer (Benchmark Plus, Bio‐Rad).
The antibacterial inhibitory rates were calculated based on the following formula after culture for 20 h: Inhibitory rates%=1−OD600,NG−OD600,BKs−OD600,Is−OD600,BKs/OD600,NG−OD600,BKs×100%,
where NG, Is, and BKs refer to the natural growth control group, experimental groups with inhibitors, and their respective sterile control groups, respectively.
The inhibitory rate was plotted and fitted as a function of Log2(inhibitor concentration) using GraphPad Prism (version: 9.5.0) software with a nonlinear regression model. The MIC was calculated by reading the concentrations at the inhibitory rate of 95%.

V. metchnikovii = test system: V. metchnikovii; design: method as in Lu et al. [2021]; details: 1000 μM; ref Lu et al. [2021]; cited from earlier work
[4] = Stability of RA in gel filtration buffer by RPC; type: physicochemical
Description: The stability of RA (1 mg/mL) in gel filtration buffer (20 mM Tris–HCl, pH 8.0, and 100 mM NaCl) at 20°C was assessed in the presence and absence of VmFbpA (molar ratio: 1 to 1) by the same RPC analysis. Sampling was performed every week and diluted 100 times with buffer before injecting into a RESOURCE RPC column. The other conditions are the same as described above.

Escherichia coli = test system: Escherichia coli; design: method as in Lu et al. [2021]; details: 1000 μM; ref Lu et al. [2021]; cited from earlier work
[5] = design: method as in Sik et al. [2021]; details: after 3 months of storage; ref Sik et al. [2021]; cited from earlier work
(UniProt Z9CIZ5JT55) = test: 6×His-based VmFbpA inhibition assay (pull-down assay) of Fe3+ binding; type: biochemical, Vibrio metschnikovii; details: 60 min at 4°C, 20 mM Tris–HCl pH 8.0, 50 mM NaHCO3, 100 mM NaCl, read-out: IC50 to VmFbpA (inhibition of Fe^3+ binding)
Description: as §1, §2, §3

Row | SMILES | EC50 [1] | IC50 (VmFbpA [2]) | Kd (VmFbpA [3]) | MIC (V. metschnikovii) | effect on growth of V. metchnikovii (V. metchnikovii) | degradation of RA ([4]; 20 mM Tris–HCl pH 8.0, 100 mM NaCl, stored at 20°C for 1 week) | degradation rate of RA ([4]; 20 mM Tris–HCl pH 8.0, 100 mM NaCl, stored at 20°C for 2 weeks) | change of degradation rate of RA in the presence of VmFbpA ([4]; VmFbpA added at molar ratio 1:1, gel filtration buffer) | effect on growth of Escherichia coli (Escherichia coli) | hydrolysis rate of RA aqueous solution [5] | IC50 ((UniProt Z9CIZ5JT55))
1 | O=C(O)/C=C/c1ccc(O)c(O)c1 [CA, caffeic acid] | 31 ± 1 µM | 6000 ± 2000 µM | 18 µM and ~18 µM | > 3000 µM |  |  |  |  |  |  | 
2 | O=C(O)[C@H](O)Cc1ccc(O)c(O)c1 [DSS, danshensu] | 23 ± 1 µM | 4000 ± 1000 µM | 0.9 µM and ~0.9 µM |  |  |  |  |  |  |  | 
3 | O=C(/C=C/c1ccc(O)c(O)c1)O[C@H](Cc1ccc(O)c(O)c1)C(=O)O [RA, Rosmarinic acid] | 14.4 ± 0.1 µM |  | 1.1 ± 0.5 µM | 440 ± 70 µM (≈ 159 µg/mL) | significantly reduced the growth | 5% | ~ 30% | did not change significantly | did not affect the growth | exceeded 10% | 2200 ± 300 µM
